ChEMBL document CHEMBL1149245 (J Med Chem, 2004)
The source made the active and inactive calls. The calls are words filed in the database; no cut-off is given here.

What was measured:
[1] = target: T1, Alpha-2C adrenergic receptor (Homo sapiens, UniProt P18825); assay: Displacement of [3H]RX821002 from human adrenergic Alpha-2C receptor expressed in CHO cells; type: cell-based
T1 sequence (P18825 whole entry): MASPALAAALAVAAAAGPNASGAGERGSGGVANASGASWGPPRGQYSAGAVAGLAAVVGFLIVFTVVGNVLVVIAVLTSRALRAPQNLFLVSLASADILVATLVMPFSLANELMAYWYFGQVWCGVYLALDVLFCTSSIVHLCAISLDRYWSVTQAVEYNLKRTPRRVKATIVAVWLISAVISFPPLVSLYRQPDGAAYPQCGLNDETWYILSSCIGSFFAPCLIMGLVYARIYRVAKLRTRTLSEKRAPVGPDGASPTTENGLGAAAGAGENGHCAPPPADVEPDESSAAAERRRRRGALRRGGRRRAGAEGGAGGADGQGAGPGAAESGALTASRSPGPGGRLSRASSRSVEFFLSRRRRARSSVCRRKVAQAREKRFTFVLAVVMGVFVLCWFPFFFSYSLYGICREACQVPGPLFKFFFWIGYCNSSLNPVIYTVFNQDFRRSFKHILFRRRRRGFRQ

[2] = target: T2, Alpha-2B adrenergic receptor (Homo sapiens, UniProt P18089); assay: Agonist activity at human adrenergic alpha-2B receptor expressed in CHO cells assessed as extracellular acidification by cytosensor microphysiometry; type: functional, cell-based
T2 sequence (P18089 whole entry): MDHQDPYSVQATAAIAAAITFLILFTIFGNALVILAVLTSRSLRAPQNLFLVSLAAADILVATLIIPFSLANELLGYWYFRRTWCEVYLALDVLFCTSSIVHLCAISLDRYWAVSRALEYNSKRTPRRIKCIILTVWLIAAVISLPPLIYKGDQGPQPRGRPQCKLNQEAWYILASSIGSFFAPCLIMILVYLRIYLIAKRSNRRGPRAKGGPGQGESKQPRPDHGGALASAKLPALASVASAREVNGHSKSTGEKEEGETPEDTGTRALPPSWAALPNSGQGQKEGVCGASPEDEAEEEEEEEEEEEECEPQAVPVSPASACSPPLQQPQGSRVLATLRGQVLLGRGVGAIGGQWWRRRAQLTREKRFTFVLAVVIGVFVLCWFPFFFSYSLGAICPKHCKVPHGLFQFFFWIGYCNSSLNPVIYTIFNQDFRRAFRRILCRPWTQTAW

[3] = target: T3, Alpha-2A adrenergic receptor (Homo sapiens, UniProt P08913); type: functional, cell-based, CHO
T3 sequence (P08913 whole entry): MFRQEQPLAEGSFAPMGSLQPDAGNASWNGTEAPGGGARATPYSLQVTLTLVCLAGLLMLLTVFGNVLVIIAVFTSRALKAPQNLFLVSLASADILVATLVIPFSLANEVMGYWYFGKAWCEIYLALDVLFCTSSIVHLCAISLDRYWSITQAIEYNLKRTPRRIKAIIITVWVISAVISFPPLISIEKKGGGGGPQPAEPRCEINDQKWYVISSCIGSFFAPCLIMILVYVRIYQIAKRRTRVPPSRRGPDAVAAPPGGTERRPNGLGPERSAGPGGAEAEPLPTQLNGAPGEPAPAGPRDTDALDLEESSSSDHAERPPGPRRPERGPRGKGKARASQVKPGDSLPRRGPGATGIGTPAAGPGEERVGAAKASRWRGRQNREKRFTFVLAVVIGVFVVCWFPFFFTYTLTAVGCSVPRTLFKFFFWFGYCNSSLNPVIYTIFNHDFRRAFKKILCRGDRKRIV
Description: Agonist activity at human adrenergic alpha-2A receptor expressed in CHO cells assessed as extracellular acidification by cytosensor microphysiometry

[4] = target: T2, Alpha-2B adrenergic receptor; assay: Displacement of [3H]RX821002 from human adrenergic alpha-2B receptor expressed in CHO cells; type: cell-based
[5] = target: T1, Alpha-2C adrenergic receptor; type: functional, cell-based, CHO
Description: Agonist activity at human adrenergic alpha-2C receptor expressed in CHO cells assessed as extracellular acidification by cytosensor microphysiometry

[6] = target: T3, Alpha-2A adrenergic receptor; assay: Displacement of [3H]RX821002 from human adrenergic alpha2A receptor expressed in CHO cells; type: cell-based
[7] = target: T4, Alpha-2C adrenergic receptor (Homo sapiens) (UniProt P18825); assay: (§1) Agonist activity at human adrenergic Alpha-2C receptor expressed in CHO cells assessed as inhibition of forskolin-induced cAMP accumulation; type: functional, cell-based
T4 sequence (whole entry): T1 sequence (P18825 whole entry)

[8] = target: T1, Alpha-2C adrenergic receptor; assay: as §1; type: functional, cell-based
[9] = target: T3, Alpha-2A adrenergic receptor; assay: (§2) Agonist activity at human adrenergic alpha-2A receptor expressed in CHO cells assessed as inhibition of forskolin-induced cAMP accumulation; type: functional, cell-based
[10] = target: T5, Alpha-2A adrenergic receptor (Homo sapiens) (UniProt P08913); assay: as §2; type: functional, cell-based
T5 sequence (whole entry): T3 sequence (P08913 whole entry)

Nischarin = Nischarin (Homo sapiens, UniProt Q9Y2I1); assay: Binding affinity to imidazoline receptor 1
Chain of Nischarin (Q9Y2I1 whole entry): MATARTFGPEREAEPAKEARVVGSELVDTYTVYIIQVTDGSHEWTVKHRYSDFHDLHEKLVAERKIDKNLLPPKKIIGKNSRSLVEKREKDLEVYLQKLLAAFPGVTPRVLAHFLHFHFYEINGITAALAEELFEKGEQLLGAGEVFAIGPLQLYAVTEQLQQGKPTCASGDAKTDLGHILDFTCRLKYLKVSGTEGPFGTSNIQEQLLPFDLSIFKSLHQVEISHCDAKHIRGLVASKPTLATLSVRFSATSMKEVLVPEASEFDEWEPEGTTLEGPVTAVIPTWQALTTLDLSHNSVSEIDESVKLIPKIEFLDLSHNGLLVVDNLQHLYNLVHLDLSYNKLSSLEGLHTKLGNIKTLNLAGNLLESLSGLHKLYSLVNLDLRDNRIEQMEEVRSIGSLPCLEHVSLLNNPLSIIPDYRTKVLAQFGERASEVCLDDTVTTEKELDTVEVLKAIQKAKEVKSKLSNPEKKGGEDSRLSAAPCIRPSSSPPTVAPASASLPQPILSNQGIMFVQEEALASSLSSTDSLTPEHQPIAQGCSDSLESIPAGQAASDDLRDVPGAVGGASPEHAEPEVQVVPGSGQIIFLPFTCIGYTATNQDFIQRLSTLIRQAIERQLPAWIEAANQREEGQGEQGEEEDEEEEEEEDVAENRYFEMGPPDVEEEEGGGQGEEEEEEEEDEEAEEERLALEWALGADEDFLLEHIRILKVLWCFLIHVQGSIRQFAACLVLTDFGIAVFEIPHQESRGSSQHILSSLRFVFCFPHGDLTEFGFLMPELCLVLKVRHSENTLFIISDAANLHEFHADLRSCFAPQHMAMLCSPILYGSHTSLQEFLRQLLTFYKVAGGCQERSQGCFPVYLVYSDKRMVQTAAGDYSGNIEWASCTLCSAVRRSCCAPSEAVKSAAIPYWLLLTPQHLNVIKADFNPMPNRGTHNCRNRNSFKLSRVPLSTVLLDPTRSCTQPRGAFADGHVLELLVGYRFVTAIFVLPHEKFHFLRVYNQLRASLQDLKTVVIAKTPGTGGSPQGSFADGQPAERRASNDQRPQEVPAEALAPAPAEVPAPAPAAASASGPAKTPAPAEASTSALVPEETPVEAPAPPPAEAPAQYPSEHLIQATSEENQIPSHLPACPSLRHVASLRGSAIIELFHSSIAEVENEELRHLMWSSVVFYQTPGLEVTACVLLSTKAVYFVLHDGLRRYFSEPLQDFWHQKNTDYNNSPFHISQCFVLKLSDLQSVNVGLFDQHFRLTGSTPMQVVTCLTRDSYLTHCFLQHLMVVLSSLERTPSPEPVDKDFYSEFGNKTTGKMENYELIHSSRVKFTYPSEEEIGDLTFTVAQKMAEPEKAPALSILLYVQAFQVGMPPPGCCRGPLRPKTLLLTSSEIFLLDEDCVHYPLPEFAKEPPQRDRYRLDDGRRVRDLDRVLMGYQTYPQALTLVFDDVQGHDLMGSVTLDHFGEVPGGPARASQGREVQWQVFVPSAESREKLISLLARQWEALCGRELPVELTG

| SMILES | Ki [1] | EC50 [2] | EC50 [3] | Ki [4] | EC50 [5] | Ki [6] | EC50 [9] | Intrinsic activity [10] | Intrinsic activity [7] | EC50 [8] | Ki (Nischarin) | Activity [10] |
| --- | --- | --- | --- | --- | --- | --- | --- | --- | --- | --- | --- | --- |
| CC(Oc1ccccc1-c1ccccc1)C1=NCCC1 (stereo unspecified) | 5890 nM | – | – | 10000 nM | – | 8130 nM | – | – | – | – | – | – |
| Cc1cccc(-c2ccccc2OC(C)C2=NCCN2)c1 (stereo unspecified) | 245 nM | – | – | 537 nM | 1580 nM | 51.3 nM | – | – | – | – | – | – |
| CC(Oc1ccccc1-c1ccccn1)C1=NCCN1 (stereo unspecified) | 1260 nM | – | – | 3310 nM | – | 1200 nM | – | – | – | – | – | – |
| CC(Oc1ccccc1-c1ccccc1[N+](=O)[O-])C1=NCCN1 (stereo unspecified) | 1230 nM | – | – | 1550 nM | – | 174 nM | – | – | – | – | – | – |
| CC(Oc1ccccc1-c1cccnc1)C1=NCCN1 (stereo unspecified) | 64.6 nM | 1000 nM | 316 nM | 933 nM | 50.1 nM | 138 nM | 589 nM | 0.5 | 1 | 39.8 nM | – | – |
| CC(Oc1ccccc1-c1ccccc1O)C1=NCCN1 (stereo unspecified) | 1620 nM | – | – | 1000 nM | – | 309 nM | – | – | – | – | – | – |
| CC(Oc1ccccc1-c1ccccc1)C1=NCCO1 (stereo unspecified) | 5890 nM | – | – | 10000 nM | – | 8130 nM | – | – | – | – | – | – |
| c1ccc(-c2ccccc2C2OC2C2=NCCN2)cc1 (cis isomer) | 6460 nM | – | 3470 nM | 20000 nM | 2690 nM | 1230 nM | – | – | – | – | – | – |
| CC(Oc1ccccc1-c1ccc([N+](=O)[O-])cc1)C1=NCCN1 (stereo unspecified) | 302 nM | – | – | 501 nM | – | 123 nM | – | – | – | – | – | – |
| CC(Oc1ccccc1-c1cccc(N)c1)C1=NCCN1 (stereo unspecified) | 309 nM | – | 257 nM | 479 nM | 501 nM | 37.2 nM | – | – | – | – | – | – |
| CC(Oc1ccccc1-c1ccccc1)C1=NCCN1 (stereo unspecified) [BIPHENYLINE] | 200 nM | 646 nM | 115 nM | 501 nM | 57.5 nM | 47.9 nM | – | – | – | – | 126 nM | – |
| CC(Oc1ccccc1-c1cccc(O)c1)C1=NCCN1 (stereo unspecified) | 17.8 nM | 5250 nM | – | 355 nM | 46.8 nM | 27.5 nM | – | – | – | – | – | – |
| c1ccc(-c2ccccc2C2OC2C2=NCCN2)cc1 (stereo unspecified) | 4270 nM | – | – | 1230 nM | – | 1510 nM | – | – | – | – | – | – |
| CC(Oc1ccccc1-c1cccc([N+](=O)[O-])c1)C1=NCCN1 (stereo unspecified) | 234 nM | – | – | 661 nM | 100 nM | 60.3 nM | – | – | 0.6 | 158 nM | – | inactive |
| CC(Oc1ccccc1-c1ccccc1)C1=NCCS1 (stereo unspecified) | > 10000 nM | – | – | > 10000 nM | – | > 10000 nM | – | – | – | – | – | – |
| CC(Oc1ccccc1-c1cccc(F)c1)C1=NCCN1 (stereo unspecified) | 17 nM | – | 105 nM | 269 nM | 60.3 nM | 14.8 nM | – | – | – | – | – | – |

The remaining compounds from weak to strong by Ki [1], led by results:

| Ki [1] | EC50 [2] | EC50 [3] | Ki [4] | EC50 [5] | Ki [6] | EC50 [9] | Intrinsic activity [10] | SMILES | Intrinsic activity [7] | EC50 [8] | Ki (Nischarin) | Activity [10] |
| --- | --- | --- | --- | --- | --- | --- | --- | --- | --- | --- | --- | --- |
| 1450 nM | – | – | 2690 nM | – | 282 nM | – | – | CC(Oc1ccccc1-c1ccncc1)C1=NCCN1 (stereo unspecified) | – | – | – | – |
| 708 nM | – | – | 3550 nM | – | 339 nM | – | – | CC(Sc1ccccc1-c1ccccc1)C1=NCCN1 (stereo unspecified) | – | – | – | – |
| 708 nM | 3800 nM | 389 nM | 1150 nM | 93.3 nM | 91.2 nM | – | – | CC(Nc1ccccc1-c1ccccc1)C1=NCCN1 (stereo unspecified) | – | – | – | – |
| 331 nM | – | – | 813 nM | – | 33.9 nM | – | – | CC(Oc1ccccc1-c1ccc(O)cc1)C1=NCCN1 (stereo unspecified) | – | – | – | – |
| 251 nM | – | – | 398 nM | 832 nM | 41.7 nM | – | – | Cc1ccc(-c2ccccc2OC(C)C2=NCCN2)cc1 (stereo unspecified) | – | – | – | – |
| 234 nM | – | – | 832 nM | 363 nM | 46.8 nM | – | – | Cc1ccccc1-c1ccccc1OC(C)C1=NCCN1 (stereo unspecified) | – | – | – | – |
| 132 nM | – | 75.9 nM | 417 nM | 93.3 nM | 45.7 nM | – | – | CC(Oc1ccccc1-c1ccsc1)C1=NCCN1 (stereo unspecified) | – | – | – | – |
| 72.4 nM | 1000 nM | 41.7 nM | 214 nM | 58.9 nM | 17 nM | – | – | CC(Oc1ccccc1-c1cccs1)C1=NCCN1 (stereo unspecified) | – | – | – | – |
